For 26 compounds, IC50 results are on record in patent publication US9029531B2 (Agios Pharmaceuticals, Inc., priority 2012, dated 2015).

In this assay the target is T1, glutaminase (GAC) (Homo sapiens, UniProt O94925).
T1 sequence (O94925 55-598 isoform O94925-3 limits assumed): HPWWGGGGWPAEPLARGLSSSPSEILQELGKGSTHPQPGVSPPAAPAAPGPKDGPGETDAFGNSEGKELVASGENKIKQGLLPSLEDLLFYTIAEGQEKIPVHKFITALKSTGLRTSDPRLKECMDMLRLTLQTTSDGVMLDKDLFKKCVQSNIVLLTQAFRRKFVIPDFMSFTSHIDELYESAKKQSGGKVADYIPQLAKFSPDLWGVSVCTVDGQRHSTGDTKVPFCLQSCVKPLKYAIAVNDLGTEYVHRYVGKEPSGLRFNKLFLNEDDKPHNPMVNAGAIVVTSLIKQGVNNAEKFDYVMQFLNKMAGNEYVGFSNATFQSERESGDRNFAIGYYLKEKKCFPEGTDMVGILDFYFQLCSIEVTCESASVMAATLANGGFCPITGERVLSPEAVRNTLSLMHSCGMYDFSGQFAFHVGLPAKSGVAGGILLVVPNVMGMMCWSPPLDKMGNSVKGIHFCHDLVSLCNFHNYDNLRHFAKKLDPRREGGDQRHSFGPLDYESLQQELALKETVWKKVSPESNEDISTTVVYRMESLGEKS
Description: Glutaminase coupled endpoint enzymatic assay (Example A). Format: biochemical. Conditions: inhibition of glutaminase; assay of Example A or Example B. In a few lines: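 Endpoint coupled assay: glutamate formed by GAC drives GDH NADH production, recycled by diaphorase reducing resazurin to fluorescent resorufin (Ex544/Em590) after SDS stop. Buffer pH 8.5 with phosphate; glutamine at Km; enzyme preincubated with compound 60 min at room temperature.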

Where only a bound is given, the exact number is not on record here.

In turn, `Nc1ccc(CC(=O)Nc2nnc([C@H]3CCC[C@H](c4nnc(NC(=O)Cc5ccc(N)cc5)s4)C3)s2)cc1` [Compound 239, N,N′-(5,5′-((1S,3S)-cyclohexane-1,3-diyl)bis(1,3,4-thiadiazole-5,2-diyl))bis(2-(4-aminophenyl)acetamide)] had an IC50 of under 100 nM.

`O=C(Cc1ccc(F)cn1)Nc1nnc([C@H]2CCC[C@H](c3nnc(NC(=O)Cc4ccc(F)cn4)s3)C2)s1` [Compound 240, N,N′-(5,5′-((1S,3S)-cyclohexane-1,3-diyl)bis(1,3,4-thiadiazole-5,2-diyl))bis(2-(5-fluoropyridin-2-yl)acetamide)] registered an IC50 of under 100 nM.

In turn, `CN(C)c1ccc(CC(=O)Nc2nnc([C@H]3CCC[C@H](c4nnc(NC(=O)Cc5ccc(N(C)C)cn5)s4)C3)s2)nc1` [Compound 241, N,N′-(5,5′-((1S,3S)-cyclohexane-1,3-diyl)bis(1,3,4-thiadiazole-5,2-diyl))bis(2-(5-(dimethylamino)pyridin-2-yl)acetamide)] yielded a concentration for half-maximal inhibition (IC50) of under 100 nM.

Turning to `NC(=O)c1ccc(CC(=O)Nc2nnc([C@H]3CCC[C@H](c4nnc(NC(=O)Cc5ccc(C(N)=O)cn5)s4)C3)s2)nc1` [Compound 242], the IC50 was under 100 nM.

For the compound `NCc1ccc(CC(=O)Nc2nnc([C@H]3CCC[C@H](c4nnc(NC(=O)Cc5ccc(CN)cn5)s4)C3)s2)nc1` [Compound 243, N,N′-(5,5′-((1S,3S)-cyclohexane-1,3-diyl)bis(1,3,4-thiadiazole-5,2-diyl))bis(2-(5-(aminomethyl)pyridin-2-yl)acetamide)], the IC50 lay in the range of 100 to 500 nM.

Consider `NCc1cccc(CC(=O)Nc2nnc([C@H]3CCC[C@H](c4nnc(NC(=O)Cc5cccc(CN)n5)s4)C3)s2)n1` [Compound 244, N,N′-(5,5′-((1S,3S)-cyclohexane-1,3-diyl)bis(1,3,4-thiadiazole-5,2-diyl))bis(2-(6-(aminomethyl)pyridin-2-yl)acetamide)], for which the concentration for half-maximal inhibition (IC50) lay in the range of 100 to 500 nM.

Compound `NCc1cccc(CC(=O)Nc2nnc([C@H]3CCC[C@H](c4nnc(NC(=O)Cc5cccc(CN)c5)s4)C3)s2)c1` [Compound 245, N,N′-(5,5′-((1S,3S)-cyclohexane-1,3-diyl)bis(1,3,4-thiadiazole-5,2-diyl))bis(2-(3-(aminomethyl)phenyl)acetamide)] came in with an IC50 of under 100 nM.

`NCc1ccc(CC(=O)Nc2nnc([C@H]3CCC[C@H](c4nnc(NC(=O)Cc5ccc(CN)cc5)s4)C3)s2)cc1` [Compound 246, N,N′-(5,5′-((1S,3S)-cyclohexane-1,3-diyl)bis(1,3,4-thiadiazole-5,2-diyl))bis(2-(4-(aminomethyl)phenyl)acetamide)] displayed an IC50 of under 100 nM.

`CCOc1ccnc(CC(=O)Nc2nnc([C@H]3CCC[C@H](c4nnc(NC(=O)Cc5cc(OCC)ccn5)s4)C3)s2)c1` [Compound 247, N,N′-(5,5′-((1S,3S)-cyclohexane-1,3-diyl)bis(1,3,4-thiadiazole-5,2-diyl))bis(2-(4-ethoxypyridin-2-yl)acetamide)] yielded a half-maximal inhibitory concentration (IC50) of under 100 nM.

As to `COc1ccc(F)c(CC(=O)Nc2nnc([C@H]3CCC[C@H](c4nnc(NC(=O)Cc5cc(OC)ccc5F)s4)C3)s2)c1` [Compound 248, N,N′-(5,5′-((1S,3S)-cyclohexane-1,3-diyl)bis(1,3,4-thiadiazole-5,2-diyl))bis(2-(2-fluoro-5-methoxyphenyl)acetamide)], the concentration for half-maximal inhibition (IC50) was under 100 nM.

As to `O=C(Cc1cccc(N2CC(O)C2)n1)Nc1nnc([C@H]2CCC[C@H](c3nnc(NC(=O)Cc4cccc(N5CC(O)C5)n4)s3)C2)s1` [Compound 249, N,N′-(5,5′-((1S,3S)-cyclohexane-1,3-diyl)bis(1,3,4-thiadiazole-5,2-diyl))bis(2-(6-(3-hydroxyazetidin-1-yl)pyridin-2-yl)acetamide)], the IC50 is under 100 nM.

`O=C(Cc1cccc(NC2CC(F)(F)C2)n1)Nc1nnc([C@H]2CCC[C@H](c3nnc(NC(=O)Cc4cccc(NC5CC(F)(F)C5)n4)s3)C2)s1` [Compound 250, N,N′-(5,5′-((1S,3S)-cyclohexane-1,3-diyl)bis(1,3,4-thiadiazole-5,2-diyl))bis(2-(6-(3,3-difluorocyclobutylamino)pyridin-2-yl)acetamide)]: the IC50 was 100 to 500 nM.

Compound `O=C(Cc1cccc(N2CC(F)C2)n1)Nc1nnc([C@H]2CCC[C@H](c3nnc(NC(=O)Cc4cccc(N5CC(F)C5)n4)s3)C2)s1` [Compound 251, N,N′-(5,5′-((1S,3S)-cyclohexane-1,3-diyl)bis(1,3,4-thiadiazole-5,2-diyl))bis(2-(6-(3-fluoroazetidin-1-yl)pyridin-2-yl)acetamide)] gave a concentration for half-maximal inhibition (IC50) of under 100 nM.

As to `O=C(Cc1ccc(N2CC(F)(F)C2)cn1)Nc1nnc([C@H]2CCC[C@H](c3nnc(NC(=O)Cc4ccc(N5CC(F)(F)C5)cn4)s3)C2)s1` [Compound 252, N,N′-(5,5′-((1S,3S)-cyclohexane-1,3-diyl)bis(1,3,4-thiadiazole-5,2-diyl))bis(2-(5-(3,3-difluoroazetidin-1-yl)pyridin-2-yl)acetamide)], the IC50 is under 100 nM.

As to `CC(=O)Nc1nnc([C@H]2CCC[C@H](c3nnc(NC(=O)Cc4ccc(N5CC(F)(F)C5)cn4)s3)C2)s1` [Compound 253, N-(5-((1S,3S)-3-(5-acetamido-1,3,4-thiadiazol-2-yl)cyclohexyl)-1,3,4-thiadiazol-2-yl)-2-(5-(3,3-difluoroazetidin-1-yl)pyridin-2-yl)acetamide], the IC50 lay in the range of 100 to 500 nM.

Consider `O=C(Cc1cc(N2CCC2)ccn1)Nc1nnc([C@H]2CCC[C@H](c3nnc(NC(=O)Cc4cc(N5CCC5)ccn4)s3)C2)s1` [Compound 254, N,N′-(5,5′-((1S,3S)-cyclohexane-1,3-diyl)bis(1,3,4-thiadiazole-5,2-diyl))bis(2-(4-(azetidin-1-yl)pyridin-2-yl)acetamide)], for which the IC50 lay in the range of 100 to 500 nM.

For `O=C(Cc1cc(N2CC(O)C2)ccn1)Nc1nnc([C@H]2CCC[C@H](c3nnc(NC(=O)Cc4cc(N5CC(O)C5)ccn4)s3)C2)s1` [Compound 255, N,N′-(5,5′-((1S,3S)-cyclohexane-1,3-diyl)bis(1,3,4-thiadiazole-5,2-diyl))bis(2-(4-(3-hydroxyazetidin-1-yl)pyridin-2-yl)acetamide)], the 50% inhibitory concentration (IC50) was in the range of 100 to 500 nM.

In the case of `O=C(Cc1cc(N2CC(F)C2)ccn1)Nc1nnc([C@H]2CCC[C@H](c3nnc(NC(=O)Cc4cc(N5CC(F)C5)ccn4)s3)C2)s1` [Compound 256, N,N′-(5,5′-((1S,3S)-cyclohexane-1,3-diyl)bis(1,3,4-thiadiazole-5,2-diyl))bis(2-(4-(3-fluoroazetidin-1-yl)pyridin-2-yl)acetamide)], the half-maximal inhibitory concentration (IC50) was under 100 nM.

Consider `O=C(Cc1cccc(N2CCC2)c1)Nc1nnc([C@H]2CCC[C@H](c3nnc(NC(=O)Cc4cccc(N5CCC5)c4)s3)C2)s1` [Compound 257, N,N′-(5,5′-((1S,3S)-cyclohexane-1,3-diyl)bis(1,3,4-thiadiazole-5,2-diyl))bis(2-(3-(azetidin-1-yl)phenyl)acetamide)], for which the half-maximal inhibitory concentration (IC50) was under 100 nM.

As to `O=C(Cc1cc(N2CC(F)(F)C2)ccn1)Nc1nnc([C@H]2CCC[C@H](c3nnc(NC(=O)Cc4cc(N5CC(F)(F)C5)ccn4)s3)C2)s1` [Compound 258, N,N′-(5,5′-((1S,3S)-cyclohexane-1,3-diyl)bis(1,3,4-thiadiazole-5,2-diyl))bis(2-(4-(3,3-difluoroazetidin-1-yl)pyridin-2-yl)acetamide)], the IC50 is 100 to 500 nM.

As for `CN1CCN(c2cccc(CC(=O)Nc3nnc([C@H]4CCC[C@H](c5nnc(NC(=O)Cc6cccc(N7CCN(C)CC7)c6)s5)C4)s3)c2)CC1` [Compound 259], the 50% inhibitory concentration (IC50) lay within 100 to 500 nM.

`O=C(Cc1cccc(N2CCCC2)c1)Nc1nnc([C@H]2CCC[C@H](c3nnc(NC(=O)Cc4cccc(N5CCCC5)c4)s3)C2)s1` [Compound 260, N,N′-(5,5′-((1S,3S)-cyclohexane-1,3-diyl)bis(1,3,4-thiadiazole-5,2-diyl))bis(2-(3-(pyrrolidin-1-yl)phenyl)acetamide)] returned an IC50 of 100 to 500 nM.

As for `O=C(Cc1cccc(NC2CC2)c1)Nc1nnc([C@H]2CCC[C@H](c3nnc(NC(=O)Cc4cccc(NC5CC5)c4)s3)C2)s1` [Compound 261, N,N′-(5,5′-((1S,3S)-cyclohexane-1,3-diyl)bis(1,3,4-thiadiazole-5,2-diyl))bis(2-(3-(cyclopropylamino)phenyl)acetamide)], the IC50 was under 100 nM.

The compound `O=C(Cc1cccc(N2CCOCC2)c1)Nc1nnc([C@H]2CCC[C@H](c3nnc(NC(=O)Cc4cccc(N5CCOCC5)c4)s3)C2)s1` [Compound 262, N,N′-(5,5′-((1S,3S)-cyclohexane-1,3-diyl)bis(1,3,4-thiadiazole-5,2-diyl))bis(2-(3-morpholinophenyl)acetamide)] came in with an IC50 of under 100 nM.

For the compound `O=C(Cc1cccc(N2CCNCC2)c1)Nc1nnc([C@H]2CCC[C@H](c3nnc(NC(=O)Cc4cccc(N5CCNCC5)c4)s3)C2)s1` [Compound 263, N,N′-(5,5′-((1S,3S)-cyclohexane-1,3-diyl)bis(1,3,4-thiadiazole-5,2-diyl))bis(2-(3-(piperazin-1-yl)phenyl)acetamide)], the half-inhibitory concentration (IC50) was under 100 nM.

`CNc1cccc(CC(=O)Nc2nnc([C@H]3CCC[C@H](c4nnc(NC(=O)Cc5cccc(NC)c5)s4)C3)s2)c1` [Compound 264, N,N′-(5,5′-((1S,3S)-cyclohexane-1,3-diyl)bis(1,3,4-thiadiazole-5,2-diyl))bis(2-(3-(methylamino)phenyl)acetamide)] registered a half-maximal inhibitory concentration (IC50) of under 100 nM.
